These are literature values, as cited in patent publication EP2391353B1, “PHARMACEUTICAL COMPOSITIONS OF TRIMETAZIDINE” (Lupin Limited, priority 2009, dated 2010).

The conditions of the series: administered orally.

For `COc1ccc(CN2CCNCC2)c(OC)c1OC.Cl.Cl` [Trimetazidine dihydrochloride, 1-(2,3,4-trimethoxybenzyl)-piperazine dihydrochloride], the Tmax entry was “around 1.8 ± 0.7 hours” and the plasma half-life result is given as “around 6.0 ± 1.4 hours”.
